We go through seven compounds from patent US8329658B2, “Arylalkyl and heteroarylalkyl derivatives of cyclosporine A for the treatment and prevention of viral infection” (Scynexis, Inc., priority 2005, dated 2012).

A value given as a limit tells only on which side of the number the result lay.

The subject of series [1] is human T-lymphoblastoid cell line, CEM-SS. Put plainly: Cytotoxicity (MTS) in CEM-SS cells. The series is classed as cell-based. The settings on record: concentration resulting in 50% inhibition of cell growth. Here is the method: (§1) The compounds of the present invention were tested for antiretroviral activity against human immunodeficiency virus-1 (HIV) using infection of the human T-lymphoblastoid cell line, CEM-SS, with the HIV strain HIV-1IIIB (Weislow et al., 1989, J. Natl. Cancer Inst. 81, 577-586). In this MTS cytoprotection assay, each experiment included cell control wells (cells only), virus control wells (cells plus virus), drug toxicity wells (cells plus drug only), drug colorimetric control wells (drug only) as well as experimental wells (drug plus cells plus virus). Compounds were first dissolved in DMSO and tested using six half-log dilutions, starting with a high concentration of either 20 or 2 μM. […] was added to each well in a volume of 50 μL, the amount of virus determined to give approximately 90% cell killing at 6 days post-infection. At assay termination, assay plates were stained with the soluble tetrazolium-based dye MTS (CellTiter 96 Reagent, Promega) to determine cell viability and quantify compound toxicity. MTS is metabolized by the mitochondria enzymes of metabolically active cells to yield a soluble formazan product, providing a quantitative analysis of cell viability and compound cytotoxicity. The assay was validated in parallel experiments using Zidovudine (3′-azido-3′-deoxythymidine or AZT) as a positive control. The assay included determinations of compound EC50 (concentration inhibiting virus replication by 50%), IC50 (concentration resulting in 50% inhibition of cell growth) and a selectivity index (IC50/EC50).

The subject of another series is HCV RNA replicon ET. Description: HCV RNA replicon luciferase (LUC) reporter assay in ET cell line. It counts as cell-based. The settings on record: replicon LUC activity, ET cells, 72 hours; for EC50: concentration reducing viral replication by 50%; for EC90: concentration reducing viral replication by 90%. The source says:
(§2) Compounds were examined in the human hepatoma cell line ET (lub ubi neo/ET), a HCV RNA replicon containing a stable luciferase (LUC) reporter. The HCV RNA replicon ET contains the 5′ end of HCV (with the HCV Internal Ribosome Entry Site (IRES) and the first few amino acids of the HCV core protein) which drives the production of a firefly luciferase (LUC), ubiquitin, and neomycin phosphotransferase (NeoR) fusion protein. Ubiquitin cleavage releases the LUC and NeoR proteins. The EMCV IRES element controls the translation of the HCV […] NS3-NS5. The NS3 protein cleaves the HCV polyprotein to release the mature NS3, NS4A, NS4B, NS5A and NS5B proteins that are required for HCV replication. At the 3′ end of the replicon is the authentic 3′ NTR of HCV. The activity of the LUC reporter is directly proportional to HCV replication levels and positive-control antiviral compounds produce a reproducible antiviral response using the LUC endpoint.
(§3) The compounds were dissolved in DMSO at five half-log concentrations each, ranging from either 0.02 to 2 μM or 0.2 to 20 μM. Subconfluent cultures of the ET line were plated out into 96 well plates dedicated for the analysis of cell numbers (cytotoxicity) or antiviral activity and the next day the compounds were added to the appropriate wells. […] Compound EC50 and EC90 values were derived from HCV RNA levels assessed as HCV RNA replicon derived LUC activity. […] Compound IC50 and IC90 values were calculated using a colorimetric assay as an indication of cell numbers and cytotoxicity. The activity of the LUC reporter is directly proportional to HCV RNA levels in the human cell line. The HCV-replicon assay was validated in parallel experiments using interferon-alpha-2b as a positive control.
A general note: A replicon is a self-replicating genome or part of one, used to study replication in cells.

The test system of series [2] is human hepatoma cell line ET (lub ubi neo/ET). Put plainly: Cytotoxicity (colorimetric cell number assay) in HCV replicon ET cell line. The settings on record: for IC50: read-out: Cytotoxicity IC50, concentration inhibiting cell viability by 50%, ET cells, 72 hours; for IC90: read-out: Cytotoxicity IC90, concentration inhibiting cell viability by 90%, ET cells, 72 hours.
Excerpt: as §2, §3

The test system of a further series is HIV-1IIIB. Put plainly: HIV MTS cytoprotection assay in CEM-SS cells. It counts as cell-based, human immunodeficiency virus-1 (HIV). The settings on record: concentration inhibiting virus replication by 50%, 6 days post-infection, NS is no significant activity. Here is the method:
as §1
(Tetrazolium assays rely on reduction of a dye to a coloured formazan, in cell work by metabolically active cells.)

For orientation: EC50 means the concentration giving half of the maximal effect. Low readings indicate greater potency, high ones weaker potency. In general, EC90 refers to the point of the concentration-response curve where the effect stands at 90%.

In turn, `C/C=C/C[C@@H](C)[C@@H](O)[C@H]1C(=O)N[C@@H](CC)C(=O)N(C)C(OCc2cccs2)C(=O)N(C)[C@@H](CC(C)C)C(=O)N[C@@H](C(C)C)C(=O)N(C)[C@@H](CC(C)C)C(=O)N[C@@H](C)C(=O)N[C@H](C)C(=O)N(C)[C@@H](CC(C)C)C(=O)N(C)[C@@H](CC(C)C)C(=O)N(C)[C@@H](C(C)C)C(=O)N1C` (stereo partly drawn) [C, 3-[(thiophene-2-yl)methoxy]cyclosporin] returned an IC50 in series [1] of over 20000 nM. Moreover, in the series with HCV RNA replicon ET, the EC50 is 350 nM and the 90% effect level (EC90) was put at 1260 nM. In series [2], the IC50 was determined as 11000 nM and the IC90 was over 20000 nM. Also, the EC50 in the series on HIV-1IIIB is 900 nM.

For the compound `C/C=C/C[C@@H](C)[C@@H](O)[C@H]1C(=O)N[C@@H](CC)C(=O)N(C)C(OCc2ccc(OC(F)(F)F)cc2)C(=O)N(C)[C@@H](CC(C)C)C(=O)N[C@@H](C(C)C)C(=O)N(C)[C@@H](CC(C)C)C(=O)N[C@@H](C)C(=O)N[C@H](C)C(=O)N(C)[C@@H](CC(C)C)C(=O)N(C)[C@@H](CC(C)C)C(=O)N(C)[C@@H](C(C)C)C(=O)N1C` (stereo partly drawn) [F, 3-[(4-trifluoromethoxy)benzyloxy]cyclosporin], the IC50 in series [1] and in series [2] was over 20000 nM in each case. The concentration for a half-maximal effect (EC50) in the series with HCV RNA replicon ET was 1180 nM; in the series on HIV-1IIIB, over 20000 nM. The compound also showed an EC90 in the series on HCV RNA replicon ET of 5420 nM. Also, in series [2], the IC90 was over 20000 nM.

On to `C/C=C/C[C@@H](C)[C@@H](O)[C@H]1C(=O)N[C@@H](CC)C(=O)N(C)C(OCc2ccsc2)C(=O)N(C)[C@@H](CC(C)C)C(=O)N[C@@H](C(C)C)C(=O)N(C)[C@@H](CC(C)C)C(=O)N[C@@H](C)C(=O)N[C@H](C)C(=O)N(C)[C@@H](CC(C)C)C(=O)N(C)[C@@H](CC(C)C)C(=O)N(C)[C@@H](C(C)C)C(=O)N1C` (stereo partly drawn) [G, 3-[(thiophene-3-yl)methoxy]cyclosporin], for which the IC50 in series [1] was over 20000 nM. Also, in the series on HCV RNA replicon ET, the EC50 was found to be 350 nM and the 90% effect level (EC90) was put at 400 nM. In addition, in series [2], the IC50 is over 20000 nM and the IC90 is over 20000 nM. Besides, in the series on HIV-1IIIB, the response was half-maximal at 3000 nM (EC50).

In turn, `C/C=C/C[C@@H](C)[C@@H](O)[C@H]1C(=O)N[C@@H](CC)C(=O)N(C)C(OCc2ccco2)C(=O)N(C)[C@@H](CC(C)C)C(=O)N[C@@H](C(C)C)C(=O)N(C)[C@@H](CC(C)C)C(=O)N[C@@H](C)C(=O)N[C@H](C)C(=O)N(C)[C@@H](CC(C)C)C(=O)N(C)[C@@H](CC(C)C)C(=O)N(C)[C@@H](C(C)C)C(=O)N1C` (stereo partly drawn) [D, 3-[(furan-2-yl)methoxy]cyclosporin] returned an IC50 in series [1] of over 20000 nM. In the series on HCV RNA replicon ET, this compound gave an EC50 of 290 nM and a concentration for an effect of 90% (EC90) of 570 nM. Also, in series [2], the IC50 was found to be 18000 nM and the IC90 is over 20000 nM. The same compound returned an EC50 with HIV-1IIIB of 580 nM.

For the compound 3-benzyloxycyclosporin [Compound B], the IC50 was over 20000 nM in series [1] and 20000 nM in series [2]. Besides, the 50% effective concentration (EC50) in the series on HCV RNA replicon ET was found to be 260 nM; in the series with HIV-1IIIB, 590 nM. The compound further had an EC90 in the series with HCV RNA replicon ET of 590 nM. In addition, the IC90 in series [2] is over 20000 nM.

In turn, `CC=CCC(C)C(O)C1C(=O)NC(CC)C(=O)N(C)C(SCc2ccccc2)C(=O)N(C)C(CC(C)C)C(=O)NC(C(C)C)C(=O)N(C)C(CC(C)C)C(=O)NC(C)C(=O)NC(C)C(=O)N(C)C(CC(C)C)C(=O)N(C)C(CC(C)C)C(=O)N(C)C(C(C)C)C(=O)N1C` (stereo not drawn) [Compound A, 3-benzylthiocyclosporin] came in with an IC50 in series [1] of over 20000 nM. In the series with HCV RNA replicon ET, this compound had an EC50 of 720 nM and an EC90 of 1840 nM. In series [2], the IC50 turned out to be 20000 nM and the IC90 was over 20000 nM. The compound further showed a 50% effective concentration (EC50) with HIV-1IIIB of 530 nM.

In series [1], `C/C=C/C[C@@H](C)[C@@H](O)[C@H]1C(=O)N[C@@H](CC)C(=O)N(C)C(OCc2ccoc2)C(=O)N(C)[C@@H](CC(C)C)C(=O)N[C@@H](C(C)C)C(=O)N(C)[C@@H](CC(C)C)C(=O)N[C@@H](C)C(=O)N[C@H](C)C(=O)N(C)[C@@H](CC(C)C)C(=O)N(C)[C@@H](CC(C)C)C(=O)N(C)[C@@H](C(C)C)C(=O)N1C` (stereo partly drawn) [Compound E, 3-[(furan-3-yl)methoxy]cyclosporin] yielded an IC50 of over 20000 nM. Moreover, in the series on HCV RNA replicon ET, the concentration giving a half-maximal response (EC50) was determined as 250 nM and the EC90 turned out to be 600 nM. Moreover, in series [2], the IC50 is over 20000 nM and the IC90 was over 20000 nM. It took 880 nM to reach a half-maximal effect in the series on HIV-1IIIB (EC50).
